These results are taken from US20210128566A1, “NOVEL FUNCTIONALIZED PURINE-2,6-DIONES AND THEIR USE IN MEDICINE” (THOMAS HELLEDAYS STIFTELSE FÖR MEDICINSK FORSKNING, priority 2017, published 2021).

The target in this test is recombinant human NUDT5 (Homo sapiens, UniProt Q9UKK9). Put plainly: NUDT5 inhibitor activity by malachite green reporter assay. The conditions noted are these: Table 4; 6 nM NUDT5, 50 μM ADP-Ribose, 15 minutes at room temperature. Format: biochemical. The gist of the method:
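Coupled ADP-ribose hydrolysis in 10 mM Tris-acetate pH 8.0, 40 mM NaCl, 10 mM Mg acetate, 0.005% Tween-20, 1 mM DTT: 6 nM NUDT5, 50 μM ADP-Ribose, 10 U/ml alkaline phosphatase, 15 min at room temperature. Pi read by malachite green at 630 nm; compounds 100 μM–1.7 nM, 3-fold; IC50 by curve fit.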
(Reporter assays use an easily measured gene product as a stand-in for the process of interest.)

Structures are written as SMILES.

A word on the IC50: it is the point on the concentration scale where inhibition reaches its midpoint. Consider `COc1cc(-c2nnc(Cn3c(N4CCNCC4)nc4c3c(=O)n(C)c(=O)n4C)o2)ccc1C` [Example 119, 7-{[5-(3-methoxy-4-methylphenyl)-1,3,4-oxadiazol-2-yl]methyl}-1,3-dimethyl-8-(piperazin-1-yl)-2,3,6,7-tetrahydro-1H-purine-2,6-dione], for which the IC50 came to 0.0357 µM. As for `Cn1c(=O)c2c(nc(N3CCNCC3)n2Cc2nnc(-c3ccc4cc[nH]c4c3)o2)n(C)c1=O` [Example 120, 7-{[5-(1H-indol-6-yl)-1,3,4-oxadiazol-2-yl]methyl}-1,3-dimethyl-8-(piperazin-1-yl)-2,3,6,7-tetrahydro-1H-purine-2,6-dione], the IC50 is 0.0805 µM. The figure for `Cn1c(=O)c2c(nc(N3CCNCC3)n2Cc2nnc(-c3ccc(C(F)(F)F)cc3)o2)n(C)c1=O` [Example 121, 1,3-dimethyl-8-(piperazin-1-yl)-7-({5-[4-(trifluoromethyl)phenyl]-1,3,4-oxadiazol-2-yl}methyl)-2,3,6,7-tetrahydro-1H-purine-2,6-dione] is 0.0516 µM. To `Cn1c(=O)c2c(nc(N3CCNCC3)n2Cc2nnc(-c3ccc(CS(C)(=O)=O)cc3)o2)n(C)c1=O` [Example 122, 7-({5-[4-(methanesulfonylmethyl)phenyl]-1,3,4-oxadiazol-2-yl}methyl)-1,3-dimethyl-8-(piperazin-1-yl)-2,3,6,7-tetrahydro-1H-purine-2,6-dione] belongs 24.4 µM. To `COc1ccc(-c2nnc(Cn3c(N4CCNCC4)nc4c3c(=O)n(C)c(=O)n4C)o2)cc1OC` [Example 123, 7-{[5-(3,4-dimethoxyphenyl)-1,3,4-oxadiazol-2-yl]methyl}-1,3-dimethyl-8-(piperazin-1-yl)-2,3,6,7-tetrahydro-1H-purine-2,6-dione] belongs 0.169 µM. As to `Cn1c(=O)c2c(nc(N3CCNCC3)n2Cc2nnc(-c3ccc4[nH]ncc4c3)o2)n(C)c1=O` [Example 124, 7-{[5-(1H-indazol-5-yl)-1,3,4-oxadiazol-2-yl]methyl}-1,3-dimethyl-8-(piperazin-1-yl)-2,3,6,7-tetrahydro-1H-purine-2,6-dione], the IC50 was 0.309 µM.

With `Cc1ccc(-c2nnc(Cn3c(N4CCNCC4)nc4c3c(=O)n(C)c(=O)n4C)o2)cn1` [Example 125, 1,3-dimethyl-7-{[5-(6-methylpyridin-3-yl)-1,3,4-oxadiazol-2-yl]methyl}-8-(piperazin-1-yl)-2,3,6,7-tetrahydro-1H-purine-2,6-dione], the IC50 was 0.216 µM. To `COc1cc(-c2nnc(Cn3c(N4CCC(N(C)C)CC4)nc4c3c(=O)n(C)c(=O)n4C)o2)ccc1C` [Example 126, 8-[4-(dimethylamino)piperidin-1-yl]-7-{[5-(3-methoxy-4-methylphenyl)-1,3,4-oxadiazol-2-yl]methyl}-1,3-dimethyl-2,3,6,7-tetrahydro-1H-purine-2,6-dione] belongs 0.0391 µM. Consider `COc1cc(-c2nnc(Cn3c(N4CCC(CN)CC4)nc4c3c(=O)n(C)c(=O)n4C)o2)ccc1C` [Example 127, 8-[4-(aminomethyl)piperidin-1-yl]-7-{[5-(3-methoxy-4-methylphenyl)-1,3,4-oxadiazol-2-yl]methyl}-1,3-dimethyl-2,3,6,7-tetrahydro-1H-purine-2,6-dione], for which the IC50 worked out at 0.0329 µM.

Take `COc1cc(-c2nnc(Cn3c(NCC4CCN(C(=N)N)CC4)nc4c3c(=O)n(C)c(=O)n4C)o2)ccc1C` [Example 128, 4-{[(7-{[5-(3-methoxy-4-methylphenyl)-1,3,4-oxadiazol-2-yl]methyl}-1,3-dimethyl-2,6-dioxo-2,3,6,7-tetrahydro-1H-purin-8-yl)amino]methyl}piperidine-1-carboximidamide]: the IC50 was determined as 0.128 µM. With `COc1cc(-c2nnc(Cn3c(N4CCNC(C(F)(F)F)C4)nc4c3c(=O)n(C)c(=O)n4C)o2)ccc1C` (centres unmarked) [Example 129, 7-{[5-(3-methoxy-4-methylphenyl)-1,3,4-oxadiazol-2-yl]methyl}-1,3-dimethyl-8-[3-(trifluoromethyl)piperazin-1-yl]-2,3,6,7-tetrahydro-1H-purine-2,6-dione], the IC50 is 0.911 µM. To `COc1cc(-c2nnc(Cn3c(N4CCC(CO)CC4)nc4c3c(=O)n(C)c(=O)n4C)o2)ccc1C` [Example 130, 8-[4-(hydroxymethyl)piperidin-1-yl]-7-{[5-(3-methoxy-4-methylphenyl)-1,3,4-oxadiazol-2-yl]methyl}-1,3-dimethyl-2,3,6,7-tetrahydro-1H-purine-2,6-dione] belongs 0.205 µM; to `COc1cc(-c2nnc(Cn3c(N4CCCNCC4)nc4c3c(=O)n(C)c(=O)n4C)o2)ccc1C` [Example 131, 8-(1,4-diazepan-1-yl)-7-{[5-(3-methoxy-4-methylphenyl)-1,3,4-oxadiazol-2-yl]methyl}-1,3-dimethyl-2,3,6,7-tetrahydro-1H-purine-2,6-dione], 0.0607 µM; to `COc1cc(-c2nnc(Cn3c(NCCC(N)=O)nc4c3c(=O)n(C)c(=O)n4C)o2)ccc1C` [Example 132, 3-[(7-{[5-(3-methoxy-4-methylphenyl)-1,3,4-oxadiazol-2-yl]methyl}-1,3-dimethyl-2,6-dioxo-2,3,6,7-tetrahydro-1H-purin-8-yl)amino]propanamide], 0.157 µM. With `COc1cc(-c2nnc(Cn3c(NCCNS(C)(=O)=O)nc4c3c(=O)n(C)c(=O)n4C)o2)ccc1C` [Example 133, N-{2-[(7-{[5-(3-methoxy-4-methylphenyl)-1,3,4-oxadiazol-2-yl]methyl}-1,3-dimethyl-2,6-dioxo-2,3,6,7-tetrahydro-1H-purin-8-yl)amino]ethyl}methanesulfonamide], the 50% inhibitory concentration (IC50) worked out at 0.352 µM. The figure for `Cn1c(=O)c2c(nc(N3CCNC(C(F)(F)F)C3)n2Cc2nnc(-c3ccc(Cl)c(Cl)c3)o2)n(C)c1=O` (centres unmarked) [Example 134, 7-{[5-(3,4-dichlorophenyl)-1,3,4-oxadiazol-2-yl]methyl}-1,3-dimethyl-8-[3-(trifluoromethyl)piperazin-1-yl]-2,3,6,7-tetrahydro-1H-purine-2,6-dione] is 0.14 µM. In the case of `CN(C)CCN(C)c1nc2c(c(=O)n(C)c(=O)n2C)n1Cc1nnc(-c2ccc(Cl)c(Cl)c2)o1` [Example 135, 7-{[5-(3,4-dichlorophenyl)-1,3,4-oxadiazol-2-yl]methyl}-8-{[2-(dimethylamino)ethyl](methyl)amino}-1,3-dimethyl-2,3,6,7-tetrahydro-1H-purine-2,6-dione], the IC50 turned out to be 0.0963 µM. Turning to `Cn1c(=O)c2c(nc(N3CCC(C(N)=O)CC3)n2Cc2nnc(-c3ccc(Cl)c(Cl)c3)o2)n(C)c1=O` [Example 136, 1-(7-{[5-(3,4-dichlorophenyl)-1,3,4-oxadiazol-2-yl]methyl}-1,3-dimethyl-2,6-dioxo-2,3,6,7-tetrahydro-1H-purin-8-yl)piperidine-4-carboxamide], the IC50 is 0.00827 µM.

Consider `COc1cc(-c2nnc(Cn3c(N(C)CCN(C)C)nc4c3c(=O)n(C)c(=O)n4C)o2)ccc1C` [Example 137, 8-{[2-(dimethylamino)ethyl](methyl)amino}-7-{[5-(3-methoxy-4-methylphenyl)-1,3,4-oxadiazol-2-yl]methyl}-1,3-dimethyl-2,3,6,7-tetrahydro-1H-purine-2,6-dione], for which the concentration for half-maximal inhibition (IC50) was 0.0241 µM. To `COc1cc(-c2nnc(Cn3c(N4CCC(C(N)=O)CC4)nc4c3c(=O)n(C)c(=O)n4C)o2)ccc1C` [Example 138, 1-(7-{[5-(3-methoxy-4-methylphenyl)-1,3,4-oxadiazol-2-yl]methyl}-1,3-dimethyl-2,6-dioxo-2,3,6,7-tetrahydro-1H-purin-8-yl)piperidine-4-carboxamide] belongs 0.0334 µM. Regarding `COc1cc(-c2nnc(Cn3c(N4CC[C@@H](N(C)C)C4)nc4c3c(=O)n(C)c(=O)n4C)o2)ccc1C` [Example 139, 8-[(3R)-3-(dimethylamino)pyrrolidin-1-yl]-7-{[5-(3-methoxy-4-methylphenyl)-1,3,4-oxadiazol-2-yl]methyl}-1,3-dimethyl-2,3,6,7-tetrahydro-1H-purine-2,6-dione], the IC50 was 0.265 µM. The figure for `COc1cc(-c2nnc(Cn3c(SCCNC(=O)OC(C)(C)C)nc4c3c(=O)n(C)c(=O)n4C)o2)ccc1C` [Example 140, tert-butyl N-{2-[(7-{[5-(3-methoxy-4-methylphenyl)-1,3,4-oxadiazol-2-yl]methyl}-1,3-dimethyl-2,6-dioxo-2,3,6,7-tetrahydro-1H-purin-8-yl)sulfanyl]ethyl}carbamate] is 0.262 µM. As to `COc1cc(-c2nnc(Cn3c(SCCNC(C)=O)nc4c3c(=O)n(C)c(=O)n4C)o2)ccc1C` [Example 141, N-{2-[(7-{[5-(3-methoxy-4-methylphenyl)-1,3,4-oxadiazol-2-yl]methyl}-1,3-dimethyl-2,6-dioxo-2,3,6,7-tetrahydro-1H-purin-8-yl)sulfanyl]ethyl}acetamide], the IC50 stood at 0.306 µM.

As for `COc1cc(-c2nnc(Cn3c(SCCN)nc4c3c(=O)n(C)c(=O)n4C)o2)ccc1C` [Example 142, 8-[(2-aminoethyl)sulfanyl]-7-{[5-(3-methoxy-4-methylphenyl)-1,3,4-oxadiazol-2-yl]methyl}-1,3-dimethyl-2,3,6,7-tetrahydro-1H-purine-2,6-dione], the IC50 was determined as 0.0492 µM. With `Cn1c(=O)c2c(nc(Cl)n2Cc2cn(-c3ccc(Cl)c(Cl)c3)nn2)n(C)c1=O` [Example 143, 8-chloro-7-{[1-(3,4-dichlorophenyl)-1H-1,2,3-triazol-4-yl]methyl}-1,3-dimethyl-2,3,6,7-tetrahydro-1H-purine-2,6-dione], the IC50 was determined as 14 µM. As for `Cn1c(=O)c2c(nc(N3CCNCC3)n2Cc2cn(-c3ccc(Cl)c(Cl)c3)nn2)n(C)c1=O` [Example 144, 7-{[1-(3,4-dichlorophenyl)-1H-1,2,3-triazol-4-yl]methyl}-1,3-dimethyl-8-(piperazin-1-yl)-2,3,6,7-tetrahydro-1H-purine-2,6-dione], the IC50 was determined as 0.155 µM.
